# Measured values from patent US20250034170A1, “SMALL MOLECULE MODULATORS OF GLUCOCEREBROSIDASE ACTIVITY AND USES THEREOF” (Vanqua Bio, Inc., priority 2021, published 2025).
# Biological target: T1, GCase (Homo sapiens, UniProt P04062)
# T1 construct: endogenous in cells; host or cells: HeLa cells
# T1 sequence (P04062 40-536): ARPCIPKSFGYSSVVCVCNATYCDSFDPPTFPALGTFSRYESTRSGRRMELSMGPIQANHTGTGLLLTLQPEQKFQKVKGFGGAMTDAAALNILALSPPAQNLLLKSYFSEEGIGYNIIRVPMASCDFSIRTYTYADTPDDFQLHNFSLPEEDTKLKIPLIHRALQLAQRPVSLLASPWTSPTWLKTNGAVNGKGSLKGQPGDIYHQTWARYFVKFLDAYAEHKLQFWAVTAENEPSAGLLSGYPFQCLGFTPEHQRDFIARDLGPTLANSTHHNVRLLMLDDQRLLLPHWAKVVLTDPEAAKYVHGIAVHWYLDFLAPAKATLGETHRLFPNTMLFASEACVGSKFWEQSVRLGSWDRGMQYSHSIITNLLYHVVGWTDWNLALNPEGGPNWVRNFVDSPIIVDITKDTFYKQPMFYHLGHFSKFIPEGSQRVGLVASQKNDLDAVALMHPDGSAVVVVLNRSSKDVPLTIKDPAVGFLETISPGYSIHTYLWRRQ
# Test: activation of GCase in a live cell PFB assay in HELA cells
# Assay type: cell-based
# Conditions: activation of GCase, EC50 ranges
# Experimental: Exemplary compounds were evaluated for activation of GCase in a live cell PFB assay in HELA cells (essentially as described in Ysselstein et al., “LRRK2 kinase activity regulates lysosomal glucocerebrosidase in neurons derived from Parkinson's disease patients” Nature Communications (2019) 10:5570). […] EC50 ranges: A: <10 μM; B: >10-50 μM; C: >50-100 μM; D: >100 μM.
row,Structure (SMILES),EC50 [µM]
1,O=C1CC2(CCN(c3cnc4cnn(CC(F)F)c4n3)CC2)CN1c1cncc(Cl)c1 [Cmpd 893],< 10
2,O=C1CC2(CCN(c3cnc4cnn(CC(F)F)c4n3)CC2)CN1Cc1cnc(OCC(F)(F)F)nc1 [Cmpd 894],10 to 50
3,O=C1CC2(CCN(c3cnc4cnn(CC(F)F)c4n3)CC2)CN1c1ccnc(C(F)(F)F)n1 [Cmpd 895],< 10
4,O=C1N(c2ccnc(C(F)(F)F)n2)CCC12CCN(c1cnc3cnn(CC(F)F)c3n1)CC2 [Cmpd 896],< 10
5,Cc1nn(CC(F)F)c2nc(N3CCC4(CC3)CCN(c3ccnc(C(F)(F)F)n3)C4=O)cnc12 [Cmpd 897],< 10
6,Cc1nn(CC(F)F)c2nc(N3CCC4(CC3)CC(=O)N(c3ccnc(C(F)(F)F)n3)C4)cnc12 [Cmpd 898],< 10
7,Cc1nc(N2CC3(CCN(c4ncc5c(n4)n(C4COC4)c(=O)n5C)C3)C2)cc(C(F)(F)F)n1 [Cmpd 899],< 10
8,O=C1N(c2ccnc(C(F)(F)F)n2)CCC12CCN(c1ncc3cnn(CC(F)F)c3n1)CC2 [Cmpd 900],< 10
9,O=C1CC2(CCN(c3ncc4cnn(CC(F)F)c4n3)CC2)CN1c1ccnc(C(F)(F)F)n1 [Cmpd 901],< 10
10,Cc1nn(CC(F)F)c2nc(N3CCC4(CC3)CC(=O)N(c3ccnc(C(F)(F)F)n3)C4)ncc12 [Cmpd 903],< 10
11,CCC1N(c2ccnc(C(F)(F)F)n2)C(=O)CC12CCN(c1cnc3cnn(CC(F)F)c3n1)CC2 (stereo not shown) [Cmpd 904],< 10
12,CCC1N(c2cnc(C(F)(F)F)nc2)C(=O)CC12CCN(c1cnc3cnn(CC(F)F)c3n1)CC2 (stereo not shown) [Cmpd 905],10 to 50
13,CCN1C(=O)N(c2ccnc(C(F)(F)F)n2)C(=O)C12CCN(c1cnc3cnn(CC(F)F)c3n1)CC2 [Cmpd 906],10 to 50
14,O=C1CC2(CCN(c3cnc4cnn(C5COC5)c4n3)CC2)CN1c1ccnc(C(F)(F)F)n1 [Cmpd 907],< 10
15,CCN1C(=O)N(c2ccnc(C(F)(F)F)n2)C(=O)C12CCN(c1cnc3cnn(C4COC4)c3n1)CC2 [Cmpd 909],10 to 50
16,O=C1CC2(CCN1c1ccc(C(F)(F)F)nc1)CN(c1cnc3cnn(CC(F)F)c3n1)C2 [Cmpd 910],10 to 50
17,O=C1CC2(CCN1c1cnc3cnn(CC(F)F)c3n1)CN(c1ccc(C(F)(F)F)cn1)C2 [Cmpd 911],10 to 50
18,O=C1CC2(CCN1c1ccc(C(F)(F)F)cn1)CN(c1cnc3cnn(CC(F)F)c3n1)C2 [Cmpd 912],10 to 50
19,O=C1CC2(CCN1c1cnc3cnn(CC(F)F)c3n1)CN(c1ccc(C(F)(F)F)nc1)C2 [Cmpd 913],10 to 50
20,CC(c1cnc(C(F)(F)F)nc1)N1CC2(CCN(c3cnc4cnn(CC(F)F)c4n3)CC2)CC1=O (stereo not shown) [Cmpd 914],10 to 50
21,O=C1CC2(CCN(c3cnc4cnn(CC(F)F)c4n3)CC2)CN1Cc1ccnc(C(F)(F)F)n1 [Cmpd 915],< 10
22,O=C1CC2(CCN(c3ncc4cnn(CC(F)F)c4n3)CC2)CN1c1cnc(C(F)(F)F)nc1 [Cmpd 916],< 10
23,O=C1CC2(CCN(c3ncc4cnn(CC(F)F)c4n3)CC2)CN1Cc1cnc(C(F)(F)F)nc1 [Cmpd 917],50 to 100
24,O=C1CC2(CCN(c3cnc4cnn(CC(F)F)c4n3)CC2)CN1Cc1ccc(OC(F)(F)F)nc1 [Cmpd 918],10 to 50
25,O=C1CC2(CCN(c3cnc4cnn(CC(F)F)c4n3)CC2)CN1Cc1ccnc(OC(F)F)c1 [Cmpd 919],< 10
26,O=C1CC2(CCN(c3ncc4cnn(CC(F)F)c4n3)CC2)CN1c1ccc(OCC(F)(F)F)nc1 [Cmpd 921],10 to 50
27,Cn1c(N2CCC3(CC2)CC(=O)N(c2cc(C(F)(F)F)ccn2)C3)nc2c(cnn2CC(F)F)c1=O [Cmpd 922],< 10
28,Cn1c(N2CCC3(CC2)CC(=O)N(c2ccnc(C(F)(F)F)c2)C3)nc2c(cnn2CC(F)F)c1=O [Cmpd 923],< 10

row,Structure (SMILES),EC50 [µM]
1,FC(F)(F)Cn1ncc2ncc(N3CCC4(CN(c5ccnc(C(F)(F)F)c5)C4)C3)nc21 [Cmpd 924],< 10
2,Cn1c(N2CCC3(CC2)CC(=O)N(c2ccc(C(F)(F)F)nc2)C3)nc2c(cnn2CC(F)F)c1=O [Cmpd 925],10 to 50
3,Cn1c(N2CCC3(CC2)CC(=O)N(Cc2cnc(C(F)(F)F)nc2)C3)nc2c(cnn2CC(F)F)c1=O [Cmpd 926],10 to 50
4,O=C1N(Cc2cnc(C(F)(F)F)cn2)CCC12CCN(c1cnc3cnn(CC(F)F)c3n1)CC2 [Cmpd 927],10 to 50
5,Cc1ncc(C(F)(F)F)nc1N1CCC2(CCN(c3cnc4cnn(CC(F)F)c4n3)CC2)C1=O [Cmpd 928],10 to 50
6,COc1cc(N2CC3(CCN(c4cnc5cnn(CC(F)F)c5n4)C3)C2)ccn1 [Cmpd 929],10 to 50
7,O=C1CC2(CCN(c3cnc4cnn(CC(F)F)c4n3)CC2)CN1Cc1cnc(C(F)(F)F)cn1 [Cmpd 930],10 to 50
8,Cc1nn(C2COC2)c2nc(N3CCC4(CN(c5ccnc(C(F)(F)F)c5)C4)C3)cnc12 [Cmpd 931],10 to 50
9,Cc1nn(C2COC2)c2nc(N3CCC4(CN(c5ccnc(C(F)(F)F)c5)C4)C3)ncc12 [Cmpd 932],10 to 50
10,FC(F)(F)c1cc(N2CC3(CCN(c4cnc5cnn(C[C@@H]6CCO6)c5n4)C3)C2)ccn1 [Cmpd 933],< 10
11,FC(F)(F)c1cc(N2CC3(CCN(c4cnc5cnn(C[C@H]6CCO6)c5n4)C3)C2)ccn1 [Cmpd 934],< 10
12,CCOc1nn(CC(F)F)c2nc(N3CCC4(CN(c5cc(C(F)(F)F)nc(C)n5)C4)C3)cnc12 [Cmpd 935],50 to 100
13,COc1nn(CC(F)F)c2nc(N3CCC4(CN(c5ccnc(C(F)(F)F)c5)C4)C3)cnc12 [Cmpd 936],< 10
14,CCOc1nn(CC(F)F)c2nc(N3CCC4(CN(c5ccnc(C(F)(F)F)c5)C4)C3)cnc12 [Cmpd 937],< 10
15,COc1nn(CC(F)F)c2nc(N3CCC4(CN(c5ccnc(C(F)(F)F)c5)C4)C3)ncc12 [Cmpd 938],10 to 50
16,CCOc1nn(CC(F)F)c2nc(N3CCC4(CN(c5ccnc(C(F)(F)F)c5)C4)C3)ncc12 [Cmpd 939],< 10
17,COc1nn(CC(F)F)c2nc(N3CCC4(CC3)CC(=O)N(c3ccnc(C(F)(F)F)c3)C4)cnc12 [Cmpd 940],< 10
18,CCOc1nn(CC(F)F)c2nc(N3CCC4(CC3)CC(=O)N(c3ccnc(C(F)(F)F)c3)C4)cnc12 [Cmpd 941],< 10
19,COc1nn(CC(F)F)c2nc(N3CCC4(CC3)CC(=O)N(c3nccc(C(F)(F)F)n3)C4)cnc12 [Cmpd 942],10 to 50
20,COc1nn(C2COC2)c2nc(N3CCC4(CN(c5ccnc(C(F)(F)F)c5)C4)C3)cnc12 [Cmpd 943],< 10
21,CCOc1nn(C2COC2)c2nc(N3CCC4(CN(c5ccnc(C(F)(F)F)c5)C4)C3)cnc12 [Cmpd 944],< 10
22,COc1nn(C2COC2)c2nc(N3CCC4(CN(c5ccnc(C(F)(F)F)c5)C4)C3)ncc12 [Cmpd 945],10 to 50
23,CCOc1nn(C2COC2)c2nc(N3CCC4(CN(c5ccnc(C(F)(F)F)c5)C4)C3)ncc12 [Cmpd 946],10 to 50
24,CCOc1nn(CC(F)F)c2nc(N3CCC4(CC3)CC(=O)N(c3ccc(C(F)(F)F)nc3)C4)cnc12 [Cmpd 947],< 10
25,COc1nn(CC(F)F)c2nc(N3CCC4(CC3)CC(=O)N(c3ccc(C(F)(F)F)nc3)C4)ncc12 [Cmpd 948],10 to 50
26,CCOc1nn(CC(F)F)c2nc(N3CCC4(CC3)CC(=O)N(c3ccc(C(F)(F)F)nc3)C4)ncc12 [Cmpd 949],10 to 50
27,COc1nn(C2COC2)c2nc(N3CCC4(CC3)CC(=O)N(c3ccc(C(F)(F)F)nc3)C4)cnc12 [Cmpd 950],> 100
